Results: US20260001928A1 (CORTERIA PHARMACEUTICALS, priority 2022, published 2026)
*1 amine or outer side, *2 acyl side, *3 side chain or, on linkers, in order; H or OH if unused. Where a SMILES comes first, the peptide text is derived from it. Side-chain parts run from the residue outwards. [ ]: non-standard residue; d: D form. The star is where a group is joined. γGlu = O=C(O)[C@H](CCC(=O)[*:2])N[*:1]; C14 diacid = O=C(O)CCCCCCCCCCCCC(=O)*; C12 diacid = O=C(O)CCCCCCCCCCC(=O)*; NMeI = CC[C@H](C)[C@H](NC)C(=O)O; Api = NC1(C(=O)O)CCNCC1; Pentanoyl = CCCCC(=O)*; AEEA = NCCOCCOCC(=O)O; Aib = CC(C)(N)C(=O)O

Assays:
CFR1R receptor = molecular target: T1, CFR1R receptor (Homo sapiens, UniProt P34998); assay: Activity at anti-target CFR1R receptor, cAMP assay in CRF1R-overexpression CHO-K1 cells; format: cell-based; conditions: 100% = Sauvagine at 100 nM; for EC50: cAMP
T1 construct: host or cells: CHO-K1 (clone 2)
T1 sequence (P34998 24-415): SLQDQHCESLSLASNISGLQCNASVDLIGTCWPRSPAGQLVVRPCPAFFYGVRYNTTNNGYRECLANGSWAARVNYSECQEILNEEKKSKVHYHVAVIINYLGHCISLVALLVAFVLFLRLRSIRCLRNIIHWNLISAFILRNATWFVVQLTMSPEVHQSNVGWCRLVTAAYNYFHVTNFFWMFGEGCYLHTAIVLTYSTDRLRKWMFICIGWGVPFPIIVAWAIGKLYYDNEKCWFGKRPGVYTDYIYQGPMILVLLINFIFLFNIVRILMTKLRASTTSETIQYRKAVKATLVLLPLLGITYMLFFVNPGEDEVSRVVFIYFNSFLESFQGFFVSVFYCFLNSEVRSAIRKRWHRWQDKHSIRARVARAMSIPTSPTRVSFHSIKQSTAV
How it was run: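 Uses frozen stocks of CHO-K1 clone 2 cells overexpressing human CRF1R, plated at 4000 cells/well final, with cAMP measured by the same protocol as the TeloHAEC line. Full-activation control: 100 nM Sauvagine.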

human CRF2a receptor = molecular target: T2, human CRF2a receptor (Homo sapiens, UniProt Q13324); assay: Activity at human CRF2a receptor, cAMP functional assay in TeloHEAC cells; format: cell-based; conditions: TeloHEAC cells stably expressing human CRF2a receptor, relative to urocortin 2 (100 nM = 100%)
T2 construct: expressed in transfected cells; host or cells: TeloHEAC cells
T2 sequence (Q13324 1-411): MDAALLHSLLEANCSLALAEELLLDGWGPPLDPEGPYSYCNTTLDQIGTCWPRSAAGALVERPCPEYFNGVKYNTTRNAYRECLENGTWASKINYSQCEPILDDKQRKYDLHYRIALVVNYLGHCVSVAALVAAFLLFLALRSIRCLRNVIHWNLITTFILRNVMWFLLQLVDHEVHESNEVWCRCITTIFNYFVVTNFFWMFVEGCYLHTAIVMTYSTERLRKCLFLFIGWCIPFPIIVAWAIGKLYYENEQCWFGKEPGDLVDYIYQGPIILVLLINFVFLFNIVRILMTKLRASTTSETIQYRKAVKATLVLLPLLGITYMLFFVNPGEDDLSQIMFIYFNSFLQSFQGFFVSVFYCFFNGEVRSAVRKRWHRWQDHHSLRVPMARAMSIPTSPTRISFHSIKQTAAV
How it was run: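 TeloHEAC cells stably expressing human CRF2a (10000 cells/well) were treated with 16-point 1:2 compound dilutions in HBSS/20 mM HEPES with IBMX for 30 min at 37° C. cAMP was read by HTRF (665/620 nm ratio). EC50 was the concentration giving 50% activation, with 100 nM urocortin 2 set as 100%.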

| Compound | Emax (% I) (CFR1R receptor) | EC50 (CFR1R receptor) | EC50 (human CRF2a receptor) |
| --- | --- | --- | --- |
| CC[C@H](C)[C@H](NC(C)=O)C(=O)N[C@H](C(=O)N[C@@H](CC(C)C)C(=O)N[C@@H](CO)C(=O)N[C@@H](CC(C)C)C(=O)N[C@@H](CC(=O)O)C(=O)N[C@@H](C(=O)N1CCC[C@H]1C(=O)N[C@H](C(=O)N[C@@H](CCCCN)C(=O)N[C@@H](CC(C)C)C(=O)N[C@@H](CCCCNC(=O)CC[C@H](NC(=O)CCCCCCCCCCC(=O)O)C(=O)O)C(=O)N[C@@H](CCCCN)C(=O)N[C@H](C(=O)N[C@@H](CC(C)C)C(=O)N[C@@H](CC(C)C)C(=O)N[C@@H](CCC(=O)O)C(=O)N[C@@H](CCC(N)=O)C(=O)N[C@@H](CCC(=O)O)C(=O)N[C@@H](CCCCN)C(=O)N[C@@H](CCC(N)=O)C(=O)N[C@@H](CCCCN)C(=O)N[C@@H](CCCCN)C(=O)N[C@@H](CCC(N)=O)C(=O)N[C@@H](CCCNC(=N)N)C(=O)N[C@@H](CCC(=O)O)C(=O)N[C@@H](CCC(N)=O)C(=O)N[C@@H](C)C(=O)N[C@@H](CCC(=O)O)C(=O)N[C@H](C(=O)N[C@@H](CC(N)=O)C(=O)NC(C)(C)C(=O)N[C@@H](CCC(N)=O)C(=O)N[C@H](C(=O)N[C@@H](CC(C)C)C(=O)N[C@@H](C)C(=O)N[C@@H](CCC(N)=O)C(=O)N[C@H](C(N)=O)C(C)C)[C@@H](C)CC)[C@@H](C)O)[C@@H](C)CC)[C@@H](C)CC)C(C)C)C(C)C [compound 182] (Ac-IVLSLD[dV]PIKLK([γGlu-C12 diacid])KILLEQEKQKKQREQAETN[Aib]QILAQV-NH2) | 1 % I | > 250 nM | 1.88 nM |
| CC[C@H](C)[C@H](NC(C)=O)C(=O)N[C@H](C(=O)N[C@@H](CC(C)C)C(=O)N[C@@H](CO)C(=O)N[C@@H](CC(C)C)C(=O)N[C@@H](CC(=O)O)C(=O)N[C@@H](C(=O)N1CCC[C@H]1C(=O)N[C@H](C(=O)N[C@@H](CCCCN)C(=O)N[C@@H](CC(C)C)C(=O)N[C@@H](CCCCNC(=O)CC[C@H](NC(=O)CCCCCCCCCCC(=O)O)C(=O)O)C(=O)N[C@@H](CCCCN)C(=O)N[C@H](C(=O)N[C@@H](CC(C)C)C(=O)N[C@@H](CC(C)C)C(=O)N[C@@H](CCC(=O)O)C(=O)N[C@@H](CCC(N)=O)C(=O)N[C@@H](CCC(=O)O)C(=O)N[C@@H](CCCCN)C(=O)N[C@@H](CCC(N)=O)C(=O)N[C@@H](CCCCN)C(=O)N[C@@H](CCCCN)C(=O)N[C@@H](CCC(N)=O)C(=O)N[C@@H](CCCNC(=N)N)C(=O)N[C@@H](CCC(=O)O)C(=O)N[C@@H](CCC(N)=O)C(=O)N[C@@H](C)C(=O)N[C@@H](CCC(=O)O)C(=O)N[C@H](C(=O)N[C@@H](CC(N)=O)C(=O)NC1(C(=O)N[C@@H](CCC(N)=O)C(=O)N[C@H](C(=O)N[C@@H](CC(C)C)C(=O)N[C@@H](C)C(=O)N[C@@H](CCC(N)=O)C(=O)N[C@H](C(N)=O)C(C)C)[C@@H](C)CC)CCNCC1)[C@@H](C)O)[C@@H](C)CC)[C@@H](C)CC)C(C)C)C(C)C [compound 183] (Ac-IVLSLD[dV]PIKLK([γGlu-C12 diacid])KILLEQEKQKKQREQAETN[Api]QILAQV-NH2) | 11 % I | > 250 nM | 2.47 nM |

More lines, now with the values ahead:

| Emax (% I) (CFR1R receptor) | EC50 (CFR1R receptor) | EC50 (human CRF2a receptor) | Compound |
| --- | --- | --- | --- |
| −4 % I | > 250 nM | 15.5 nM | CC[C@H](C)[C@H](NC)C(=O)N[C@H](C(=O)N[C@@H](CC(C)C)C(=O)N[C@@H](CO)C(=O)N[C@@H](CC(C)C)C(=O)N[C@@H](CC(=O)O)C(=O)N[C@@H](C(=O)N1CCC[C@H]1C(=O)N[C@H](C(=O)N[C@@H](CCCCN)C(=O)N[C@@H](CC(C)C)C(=O)N[C@@H](CCCCNC(=O)COCCOCCNC(=O)COCCOCCNC(=O)CC[C@H](NC(=O)CC[C@H](NC(=O)CCCCCCCCCCCCC(=O)O)C(=O)O)C(=O)O)C(=O)N[C@@H](CCCCN)C(=O)N[C@H](C(=O)N[C@@H](CC(C)C)C(=O)N[C@@H](CC(C)C)C(=O)N[C@@H](CCC(=O)O)C(=O)N[C@@H](CCC(N)=O)C(=O)N[C@@H](CCC(=O)O)C(=O)N[C@@H](CCCCN)C(=O)N[C@@H](CCC(N)=O)C(=O)N[C@@H](CCCCN)C(=O)N[C@@H](CCCCN)C(=O)N[C@@H](CCC(N)=O)C(=O)N[C@@H](CCCNC(=N)N)C(=O)N[C@@H](CCC(=O)O)C(=O)N[C@@H](CCC(N)=O)C(=O)N[C@@H](C)C(=O)N[C@@H](CCC(=O)O)C(=O)N[C@H](C(=O)N[C@@H](CC(N)=O)C(=O)NC(C)(C)C(=O)N[C@@H](CCC(N)=O)C(=O)N[C@H](C(=O)N[C@@H](CC(C)C)C(=O)N[C@@H](C)C(=O)N[C@@H](CCC(N)=O)C(=O)N[C@H](C(N)=O)C(C)C)[C@@H](C)CC)[C@@H](C)O)[C@@H](C)CC)[C@@H](C)CC)C(C)C)C(C)C [compound 179] (H-[NMeI]VLSLD[dV]PIKLK([AEEA-AEEA-γGlu-γGlu-C14 diacid])KILLEQEKQKKQREQAETN[Aib]QILAQV-NH2) |
| 2 % I | > 250 nM | 10.7 nM | CCCCC(=O)N[C@H](C(=O)N[C@@H](CC(C)C)C(=O)N[C@@H](CO)C(=O)N[C@@H](CC(C)C)C(=O)N[C@@H](CC(=O)O)C(=O)N[C@@H](C(=O)N1CCC[C@H]1C(=O)N[C@H](C(=O)N[C@@H](CCCCN)C(=O)N[C@@H](CC(C)C)C(=O)N[C@@H](CCCCNC(=O)COCCOCCNC(=O)COCCOCCNC(=O)CC[C@H](NC(=O)CCCCCCCCCCCCC(=O)O)C(=O)O)C(=O)N[C@@H](CCCCN)C(=O)N[C@H](C(=O)N[C@@H](CC(C)C)C(=O)N[C@@H](CC(C)C)C(=O)N[C@@H](CCC(=O)O)C(=O)N[C@@H](CCC(N)=O)C(=O)N[C@@H](CCC(=O)O)C(=O)N[C@@H](CCCCN)C(=O)N[C@@H](CCC(N)=O)C(=O)N[C@@H](CCCCN)C(=O)N[C@@H](CCCCN)C(=O)N[C@@H](CCC(N)=O)C(=O)N[C@@H](CCCNC(=N)N)C(=O)N[C@@H](CCC(=O)O)C(=O)N[C@@H](CCC(N)=O)C(=O)N[C@@H](C)C(=O)N[C@@H](CCC(=O)O)C(=O)N[C@H](C(=O)N[C@@H](CC(N)=O)C(=O)NC(C)(C)C(=O)N[C@@H](CCC(N)=O)C(=O)N[C@H](C(=O)N[C@@H](CC(C)C)C(=O)N[C@@H](C)C(=O)N[C@@H](CCC(N)=O)C(=O)N[C@H](C(N)=O)C(C)C)[C@@H](C)CC)[C@@H](C)O)[C@@H](C)CC)[C@@H](C)CC)C(C)C)C(C)C [compound 180] (Pentanoyl-VLSLD[dV]PIKLK([AEEA-AEEA-γGlu-C14 diacid])KILLEQEKQKKQREQAETN[Aib]QILAQV-NH2) |
| 9 % I | > 250 nM | 24.7 nM | CCCCC(=O)N[C@H](C(=O)N[C@@H](CC(C)C)C(=O)N[C@@H](CO)C(=O)N[C@@H](CC(C)C)C(=O)N[C@@H](CC(=O)O)C(=O)N[C@@H](C(=O)N1CCC[C@H]1C(=O)N[C@H](C(=O)N[C@@H](CCCCN)C(=O)N[C@@H](CC(C)C)C(=O)N[C@@H](CCCCNC(=O)COCCOCCNC(=O)COCCOCCNC(=O)CC[C@H](NC(=O)CC[C@H](NC(=O)CCCCCCCCCCCCC(=O)O)C(=O)O)C(=O)O)C(=O)N[C@@H](CCCCN)C(=O)N[C@H](C(=O)N[C@@H](CC(C)C)C(=O)N[C@@H](CC(C)C)C(=O)N[C@@H](CCC(=O)O)C(=O)N[C@@H](CCC(N)=O)C(=O)N[C@@H](CCC(=O)O)C(=O)N[C@@H](CCCCN)C(=O)N[C@@H](CCC(N)=O)C(=O)N[C@@H](CCCCN)C(=O)N[C@@H](CCCCN)C(=O)N[C@@H](CCC(N)=O)C(=O)N[C@@H](CCCNC(=N)N)C(=O)N[C@@H](CCC(=O)O)C(=O)N[C@@H](CCC(N)=O)C(=O)N[C@@H](C)C(=O)N[C@@H](CCC(=O)O)C(=O)N[C@H](C(=O)N[C@@H](CC(N)=O)C(=O)NC(C)(C)C(=O)N[C@@H](CCC(N)=O)C(=O)N[C@H](C(=O)N[C@@H](CC(C)C)C(=O)N[C@@H](C)C(=O)N[C@@H](CCC(N)=O)C(=O)N[C@H](C(N)=O)C(C)C)[C@@H](C)CC)[C@@H](C)O)[C@@H](C)CC)[C@@H](C)CC)C(C)C)C(C)C [compound 181] (Pentanoyl-VLSLD[dV]PIKLK([AEEA-AEEA-γGlu-γGlu-C14 diacid])KILLEQEKQKKQREQAETN[Aib]QILAQV-NH2) |
